Assay results published in ChEMBL document CHEMBL1201862, “PubChem BioAssay data set” (2004).
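Five concentrations, 48 hours, 96-well plates. GI50: concentration for 50% inhibition of growth.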 The source made the active and inactive calls. No stated cut-off is given here; in the data, active = GI50 up to about 1.1 µM and inactive = higher.

Tests used:
Assay in all cases: NCI-60 cell line screen, 48 h
NCI-H23 = system: NCI-H23
BT-549 = system: BT-549
CAKI-1 = system: CAKI-1
NCI-H460 = system: NCI-H460
MOLT-4 = system: MOLT-4
OVCAR-8 = system: OVCAR-8
KM12 = system: KM12
COLO 205 = system: COLO 205
A549 = system: A549
T47D = system: T47D
NCI-H226 = system: NCI-H226
DU-145 = system: DU-145
SNB-19 = system: SNB-19
MDA-MB-231 = system: MDA-MB-231
HCT-15 = system: HCT-15
HOP-92 = system: HOP-92
SF-539 = system: SF-539
HOP-62 = system: HOP-62
SN12C = system: SN12C
Malme-3M = system: Malme-3M
K562 = system: K562
RPMI-8226 = system: RPMI-8226
CCRF-CEM = system: CCRF-CEM
UACC-62 = system: UACC-62
RXF 393 = system: RXF 393
SK-MEL-2 = system: SK-MEL-2
HT-29 = system: HT-29
TK-10 = system: TK-10
U-251 = system: U-251
SK-MEL-28 = system: SK-MEL-28
MDA-N = system: MDA-N
SR = system: SR
EKVX = system: EKVX
OVCAR-5 = system: OVCAR-5
SNB-75 = system: SNB-75
SK-MEL-5 = system: SK-MEL-5
UACC-257 = system: UACC-257
OVCAR-3 = system: OVCAR-3
HCC 2998 = system: HCC 2998
SF-268 = system: SF-268
HL-60 = system: HL-60
MDA-MB-435 = system: MDA-MB-435
MCF7 = system: MCF7
ACHN = system: ACHN
Hs-578T = system: Hs-578T
SF-295 = system: SF-295
SK-OV-3 = system: SK-OV-3
OVCAR-4 = system: OVCAR-4
A498 = system: A498
NCI/ADR-RES = system: NCI/ADR-RES
HCT-116 = system: HCT-116
SW-620 = system: SW-620
UO-31 = system: UO-31
M14 = system: M14
786-0 = system: 786-0
IGROV-1 = system: IGROV-1
NCI-H522 = system: NCI-H522
LOX IMVI = system: LOX IMVI
PC-3 = system: PC-3

For `CC(=O)O[C@H]1[C@@H](N2CCOCC2)C[C@H]2[C@@H]3CC=C4C[C@@H](N5CCCC5)CC[C@]4(C)[C@H]3CC[C@@]21C`, the GI50 (NCI-H23) was > 100 µM (inactive), the GI50 (BT-549) was > 100 µM (inactive) and the GI50 (CAKI-1) was > 100 µM (inactive). For the same compound, the GI50 (NCI-H460) was > 100 µM (inactive), the GI50 (MOLT-4) was > 100 µM (inactive) and the GI50 (OVCAR-8) was > 100 µM (inactive). For the same compound, the GI50 (KM12) was > 100 µM (inactive), the GI50 (COLO 205) was > 100 µM (inactive) and the GI50 (A549) was > 100 µM (inactive). For the same compound, the GI50 (T47D) was > 100 µM (inactive), the GI50 (NCI-H226) was > 100 µM (inactive) and the GI50 (DU-145) was > 100 µM (inactive). For the same compound, the GI50 (SNB-19) was > 100 µM (inactive), the GI50 (MDA-MB-231) was > 100 µM (inactive) and the GI50 (HCT-15) was > 100 µM. The GI50 (HOP-92) was 85.9 µM (inactive), the GI50 (SF-539) was 73.8 µM (inactive) and the GI50 (HOP-62) was > 100 µM (inactive). The GI50 (SN12C) was > 100 µM (inactive), the GI50 (Malme-3M) was > 100 µM (inactive) and the GI50 (K562) was 24 µM (inactive). For the same compound, the GI50 (RPMI-8226) was > 100 µM (inactive), the GI50 (CCRF-CEM) was > 100 µM (inactive) and the GI50 (UACC-62) was > 100 µM (inactive). The GI50 (RXF 393) was > 100 µM (inactive), the GI50 (SK-MEL-2) was > 100 µM (inactive) and the GI50 (HT-29) was 5.21 µM (inactive). The GI50 (TK-10) was > 100 µM (inactive), the GI50 (U-251) was > 100 µM (inactive) and the GI50 (SK-MEL-28) was > 100 µM (inactive). The GI50 (MDA-N) was > 100 µM (inactive), the GI50 (SR) was 49.7 µM (inactive) and the GI50 (EKVX) was > 100 µM (inactive). The GI50 (OVCAR-5) was > 100 µM (inactive), the GI50 (SNB-75) was > 100 µM (inactive) and the GI50 (SK-MEL-5) was > 100 µM (inactive). For the same compound, the GI50 (UACC-257) was > 100 µM (inactive), the GI50 (OVCAR-3) was > 100 µM (inactive) and the GI50 (HCC 2998) was 48.8 µM (inactive). For the same compound, the GI50 (SF-268) was > 100 µM (inactive), the GI50 (HL-60) was 56.4 µM (inactive) and the GI50 (MDA-MB-435) was > 100 µM (inactive). The GI50 (MCF7) was > 100 µM (inactive), the GI50 (ACHN) was > 100 µM (inactive) and the GI50 (Hs-578T) was > 100 µM (inactive). For the same compound, the GI50 (SF-295) was > 100 µM (inactive), the GI50 (SK-OV-3) was > 100 µM (inactive) and the GI50 (OVCAR-4) was > 100 µM (inactive). For the same compound, the GI50 (A498) was > 100 µM (inactive), the GI50 (NCI/ADR-RES) was > 100 µM (inactive) and the GI50 (HCT-116) was 65.8 µM (inactive). For the same compound, the GI50 (SW-620) was > 100 µM (inactive), the GI50 (UO-31) was > 100 µM (inactive) and the GI50 (M14) was 35.4 µM (inactive). For the same compound, the GI50 (786-0) was > 100 µM (inactive), the GI50 (IGROV-1) was > 100 µM (inactive) and the GI50 (NCI-H522) was > 100 µM (inactive). The GI50 (LOX IMVI) was > 100 µM (inactive) and the GI50 (PC-3) was > 100 µM (inactive).
In the case of `O=C1Nc2ccccc2/C1=N/NC(=S)N1CCCC1`, the GI50 (NCI-H23) is reported as 3.01 µM (inactive), the GI50 (BT-549) is reported as 2.54 µM (inactive) and the GI50 (CAKI-1) is reported as 2.15 µM (inactive). For the same compound, the GI50 (NCI-H460) was 0.499 µM (active), the GI50 (MOLT-4) was 0.193 µM (active) and the GI50 (OVCAR-8) was 1.02 µM (active). For the same compound, the GI50 (KM12) was 2.4 µM (inactive), the GI50 (COLO 205) was 1.44 µM (inactive) and the GI50 (A549) was 0.736 µM (active). The GI50 (T47D) was 6.25 µM (inactive), the GI50 (NCI-H226) was 0.247 µM (active) and the GI50 (DU-145) was 17.1 µM (inactive). For the same compound, the GI50 (SNB-19) was 1.15 µM (inactive), the GI50 (MDA-MB-231) was 6.58 µM (inactive) and the GI50 (HCT-15) was 0.281 µM. For the same compound, the GI50 (HOP-92) was 8.38 µM (inactive), the GI50 (SF-539) was 1.08 µM (active) and the GI50 (HOP-62) was 1.19 µM (inactive). For the same compound, the GI50 (SN12C) was 1.91 µM (inactive), the GI50 (Malme-3M) was 0.889 µM (active) and the GI50 (K562) was 0.586 µM (active). For the same compound, the GI50 (RPMI-8226) was 0.743 µM (active), the GI50 (CCRF-CEM) was 0.369 µM (active) and the GI50 (UACC-62) was 1.32 µM (inactive). The GI50 (RXF 393) was 0.358 µM (active), the GI50 (SK-MEL-2) was 6.27 µM (inactive) and the GI50 (HT-29) was 1.19 µM (inactive). The GI50 (TK-10) was 8.26 µM (inactive), the GI50 (U-251) was 0.867 µM (active) and the GI50 (SK-MEL-28) was > 100 µM (inactive). The GI50 (MDA-N) was 3.4 µM (inactive), the GI50 (SR) was 0.291 µM (active) and the GI50 (EKVX) was 2.37 µM (inactive). For the same compound, the GI50 (OVCAR-5) was 12.8 µM (inactive), the GI50 (SNB-75) was 3.45 µM (inactive) and the GI50 (SK-MEL-5) was 0.585 µM (active). For the same compound, the GI50 (UACC-257) was 6.97 µM (inactive), the GI50 (OVCAR-3) was 0.53 µM (active) and the GI50 (HCC 2998) was 0.586 µM (active). The GI50 (SF-268) was 9.93 µM (inactive), the GI50 (HL-60) was 0.583 µM (active) and the GI50 (MDA-MB-435) was 3.64 µM (inactive). The GI50 (MCF7) was 2.07 µM (inactive), the GI50 (ACHN) was 0.64 µM (active) and the GI50 (Hs-578T) was 2.13 µM (inactive). The GI50 (SF-295) was 0.662 µM (active), the GI50 (SK-OV-3) was 5.12 µM (inactive) and the GI50 (OVCAR-4) was 1.01 µM (active). For the same compound, the GI50 (A498) was 2.95 µM (inactive), the GI50 (NCI/ADR-RES) was 0.361 µM (active) and the GI50 (HCT-116) was 0.425 µM (active). The GI50 (SW-620) was 0.766 µM (active), the GI50 (UO-31) was 0.632 µM (active) and the GI50 (M14) was 1.56 µM (inactive). The GI50 (786-0) was 0.647 µM (active), the GI50 (IGROV-1) was 1.87 µM (inactive) and the GI50 (NCI-H522) was 2.12 µM (inactive). For the same compound, the GI50 (LOX IMVI) was 0.673 µM (active) and the GI50 (PC-3) was 0.507 µM (active).
